Results from ChEMBL document CHEMBL1201862, “PubChem BioAssay data set” (2004).
Calls of active or inactive are those of the source. Rule as the data show it, for most assays here: actives have a measured EC50 and inactives only a lower limit.

Legend:
BJ [1] = experiment: BJ-TERT fibroblast viability loss – cell-based, RAS-independent, luminescence, dose response (AID 1933); type: functional; conditions: Homo sapiens
[2] = Luminescence Cell-Based Dose Response HTS to Identify Inhibitors of 5'UTR Stem-Loop Driven Prion Protein mRNA Translation in H4 Neuroglioblastoma Cells. [Related pubchem assays: 1827 (Project Summary), 1813 (Primary HTS)]; type: functional
BJ [3] = experiment: cells; type: functional, cell-based; conditions: Homo sapiens
[4] = alpha-synuclein stem-loop luciferase translation blockers – H4 neuroglioma cells, luminescence, confirmation (AID 1988); type: functional, cell-based
BJ [5] = experiment: BJ-TERT-LT-ST fibroblast viability loss – cell-based, RAS-independent, luminescence, dose response (AID 1935); type: functional; conditions: Homo sapiens;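 also: BJ fibroblasts immortalized with TERT plus LT and ST oncogenes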
[6] = luciferase reporter signal suppression in cells – H4 neuroglioma cells, luminescence, dose response (AID 1990); type: functional, cell-based
[7] = target: Luciferin 4-monooxygenase (Photinus pyralis, UniProt P08659); experiment: Counter Screen for Luciferase-based Assay Positives. [Related pubchem assays: 620, 618, 411 ]
[8] = target: Glyceraldehyde-3-phosphate dehydrogenase (Homo sapiens, UniProt P04406)
[9] = DRD fibroblast viability loss – cell-based, non-viral oncogenic, luminescence, dose response (AID 1934); type: functional; conditions: Homo sapiens
HT-1080 = experiment: HT1080 cell viability loss – fluorescence readout (AID 620); type: functional, cell-based; conditions: Homo sapiens
[10] = target: T1, Trace amine-associated receptor 1 (Homo sapiens, UniProt Q96RJ0); experiment: Fluorescence-based cell-based high throughput dose response assay to identify agonists of the human trace amine associated receptor 1 (TAAR1).; type: functional
T1 sequence (Q96RJ0 whole entry): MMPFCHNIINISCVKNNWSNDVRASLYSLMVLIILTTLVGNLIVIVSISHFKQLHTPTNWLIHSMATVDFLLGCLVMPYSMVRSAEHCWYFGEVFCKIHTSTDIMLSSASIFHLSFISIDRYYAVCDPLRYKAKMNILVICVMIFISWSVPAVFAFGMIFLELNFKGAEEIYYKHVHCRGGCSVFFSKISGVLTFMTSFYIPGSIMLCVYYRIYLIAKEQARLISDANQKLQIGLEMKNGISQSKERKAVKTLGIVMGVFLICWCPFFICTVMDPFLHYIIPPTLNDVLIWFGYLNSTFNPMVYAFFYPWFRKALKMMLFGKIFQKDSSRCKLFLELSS

cells [11] = type: functional, cell-based
cells [12] = type: functional, cell-based; remark: listed apart in the source
[13] = target: T1, Trace amine-associated receptor 1; experiment: Counterscreen for agonists of the human trace amine associated receptor 1 (hTAAR1): Fluorescence-based cell-based high throughput dose response assay to identify hTAAR1 agonist that also desensitize TAAR1 receptor response.; type: functional
X-box-binding protein 1 = target: T2, X-box-binding protein 1 (Homo sapiens, UniProt P17861); type: functional, Cricetulus griseus;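 also: confirmatory dose-response counter-screen serving a CHOP assay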
T2 sequence (P17861 whole entry): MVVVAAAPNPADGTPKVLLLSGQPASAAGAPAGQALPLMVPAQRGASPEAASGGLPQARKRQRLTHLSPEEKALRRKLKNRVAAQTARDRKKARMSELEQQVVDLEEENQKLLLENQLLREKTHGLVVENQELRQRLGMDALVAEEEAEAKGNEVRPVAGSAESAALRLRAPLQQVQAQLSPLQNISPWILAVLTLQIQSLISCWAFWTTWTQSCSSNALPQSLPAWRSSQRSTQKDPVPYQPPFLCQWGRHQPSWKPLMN

[14] = viability loss of HPDE-C7K cells – cell-based, fluorescence, HTS, primary screen (AID 431); type: functional; conditions: Homo sapiens
[15] = HPDE-C7 pancreatic duct cell viability loss – fluorescence, HTS (AID 430); type: functional, cell-based; conditions: Homo sapiens
[16] = target: Neurotensin receptor type 1 (Homo sapiens, UniProt P30989); type: functional;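 also: Image-based confirmatory dose-response assay measuring agonist activity at NTR1; NTR1-expressing U2OS osteosarcoma cells imaged for beta-arrestin GFP spot formation; agonist potency where compounds increase beta-arrestin recruitment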
Chain of Neurotensin receptor type 1 (P30989 whole entry): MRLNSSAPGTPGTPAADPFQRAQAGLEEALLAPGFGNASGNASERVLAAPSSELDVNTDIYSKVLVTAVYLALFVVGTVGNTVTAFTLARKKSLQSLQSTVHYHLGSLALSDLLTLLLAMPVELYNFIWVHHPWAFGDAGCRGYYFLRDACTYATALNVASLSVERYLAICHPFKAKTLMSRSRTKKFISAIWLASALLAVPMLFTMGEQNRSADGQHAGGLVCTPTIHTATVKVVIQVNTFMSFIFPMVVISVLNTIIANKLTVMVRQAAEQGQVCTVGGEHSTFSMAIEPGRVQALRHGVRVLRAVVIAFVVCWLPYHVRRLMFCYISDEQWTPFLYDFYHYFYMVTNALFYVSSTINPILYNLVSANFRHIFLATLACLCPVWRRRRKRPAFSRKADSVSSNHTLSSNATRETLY

Chain of Luciferin 4-monooxygenase (P08659 whole entry): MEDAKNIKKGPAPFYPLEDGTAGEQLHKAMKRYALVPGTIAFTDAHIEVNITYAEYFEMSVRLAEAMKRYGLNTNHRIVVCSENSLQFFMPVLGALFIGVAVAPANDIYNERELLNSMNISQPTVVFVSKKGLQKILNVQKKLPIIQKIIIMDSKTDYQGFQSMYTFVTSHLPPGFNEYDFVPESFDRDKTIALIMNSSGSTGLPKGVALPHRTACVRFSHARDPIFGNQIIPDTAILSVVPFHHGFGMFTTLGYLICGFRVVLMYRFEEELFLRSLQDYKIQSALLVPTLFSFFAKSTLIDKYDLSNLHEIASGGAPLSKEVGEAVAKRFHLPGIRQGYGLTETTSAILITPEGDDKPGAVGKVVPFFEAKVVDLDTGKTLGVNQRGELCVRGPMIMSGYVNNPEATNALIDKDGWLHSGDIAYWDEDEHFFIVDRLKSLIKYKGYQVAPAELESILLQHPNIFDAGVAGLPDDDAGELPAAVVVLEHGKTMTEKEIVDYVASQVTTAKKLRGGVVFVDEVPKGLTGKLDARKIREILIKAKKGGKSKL
Chain of Glyceraldehyde-3-phosphate dehydrogenase (P04406 whole entry): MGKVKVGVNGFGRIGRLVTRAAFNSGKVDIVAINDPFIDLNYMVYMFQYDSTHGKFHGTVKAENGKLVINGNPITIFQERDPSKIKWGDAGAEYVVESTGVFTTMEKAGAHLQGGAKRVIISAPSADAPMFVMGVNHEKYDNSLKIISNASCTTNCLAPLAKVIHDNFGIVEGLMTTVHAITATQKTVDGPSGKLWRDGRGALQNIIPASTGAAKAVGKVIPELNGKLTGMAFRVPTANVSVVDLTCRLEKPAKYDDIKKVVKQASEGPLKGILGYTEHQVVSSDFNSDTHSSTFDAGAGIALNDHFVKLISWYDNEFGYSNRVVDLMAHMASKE

O=C(CSc1nnc(-c2ccccc2)o1)Nc1ccccc1F
EC50 (BJ [1]): 11.5 µM (active)
EC50 [2]: 1.07 µM (active)
EC50 (BJ [3]): 7.86 µM (active)
EC50 [4]: 1.21 µM (active)
EC50 (BJ [5]): > 150 µM (inconclusive)
EC50 [6]: 4.09 µM (inconclusive)
EC50 [7]: 2.93 µM (active)
IC50 [8]: > 100 µM (not active)
EC50 [9]: 8.39 µM (active)
EC50 (HT-1080): > 50 µM (not active)

Cc1cc(-c2csc(N)n2)c(C)n1CCc1ccccc1
EC50 [10]: 0.449 µM (active)
IC50 (cells [11]): > 29.9 µM (inactive)
EC50 [7]: 0.38 µM (active)
EC50 (cells [12]): > 29.9 µM (inactive)
IC50 [13]: 3.8 µM (active)
EC50 (HT-1080): > 50 µM (not active)

CCOc1cc(NC(=O)c2cccs2)c(OCC)cc1N=C(S)NCC(C)C
Absolute IC50 (XBP1) (X-box-binding protein 1): 10 µM

O=C(O)CCSc1nc2cc(Br)ccc2[nH]1
EC50 [14]: > 20 µM (not active)
EC50 [15]: > 20 µM (not active)

C=CCn1/c(=N/C(=O)c2cccc(N3C(=O)CCC3=O)c2)sc2cccc(OC)c21
EC50 [16]: > 40 µM (inactive)

CC1CCc2c(sc3ncn(CC(=O)N=Nc4c(O)[nH]c5ccccc45)c(=O)c23)C1 (stereo unspecified)
Absolute IC50 (XBP1) (X-box-binding protein 1): 10 µM
